In this experiment the target is T1, truncated form of PTP1B (corresponding to the first 321 amino acids) (Homo sapiens, UniProt P18031).
T1 construct: a truncated form of PTP1B (corresponding to the first 321 amino acids); made in house; host or cells: E. coli
T1 sequence (P18031 1-321): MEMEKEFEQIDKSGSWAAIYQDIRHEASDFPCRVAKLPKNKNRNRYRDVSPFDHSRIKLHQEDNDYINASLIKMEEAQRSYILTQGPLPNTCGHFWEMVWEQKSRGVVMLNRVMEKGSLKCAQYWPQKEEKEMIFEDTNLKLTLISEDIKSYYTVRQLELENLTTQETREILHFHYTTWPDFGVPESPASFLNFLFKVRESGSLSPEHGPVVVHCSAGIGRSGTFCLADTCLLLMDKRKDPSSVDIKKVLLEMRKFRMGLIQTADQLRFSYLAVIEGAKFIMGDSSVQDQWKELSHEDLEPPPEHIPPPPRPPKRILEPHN
The experiment is described as follows: Inhibition of PTP1B, p-nitrophenyl phosphate substrate. Type of experiment: biochemical. Conditions: substrate p-nitrophenyl phosphate 0.16 to 10 mM; 100 mM sodium acetate pH 5.5; 25° C. for 60 minutes; absorbance at 405 nm. The procedure:
The assay conditions are as follows. Appropriate concentrations of the compounds of the invention are added to the reaction mixtures containing different concentrations of the substrate, p-nitrophenyl phosphate (range: 0.16 to 10 mM—final assay concentration). The buffer used was 100 mM sodium acetate pH 5.5, 50 mM sodium chloride, 0.1% (w/v) bovine serum albumin and 5 mM dithiothreitol (total volume […]). The reaction was started by addition of the enzyme and carried out in microtiter plates at 25° C. for 60 minutes. The reactions are stopped by addition of NaOH. […] The data are analyzed using nonlinear regression fit to classical Michaelis Menten enzyme kinetic models. Inhibition is expressed as Ki values in μM.

Drawing on patent US6951878B2, “Benzo[b]thiophenyl or tetrahydro-benzo[b]thiophenyl modulators of protein tyrosine phosphatases (PTPases)” (Novo Nordisk A/S, priority 1998, dated 2005), this text covers Ki for two compounds.

For orientation: Ki means a measure of affinity in units of concentration, obtained from inhibition or displacement. High values mean a looser hold on the target, low ones a stronger hold on the target.

Structures can show the parent of a compound that is named as a salt.

`O=C(O)C(=O)Nc1sc2c(c1C(=O)O)CCN(C(=O)c1ccccc1)C2` [Example 1, 6-Benzoyl-2-(oxalyl-amino)-4,5,6,7-tetrahydro-thien[2,3-c]pyridine-3-carboxylic acid, Mono Sodium Salt] showed a Ki of 51 µM.
Regarding `O=C(O)C(=O)Nc1sc2c(c1C(=O)O)CCN(CCc1ccccc1)C2` [Example 6], affinity was put at a Ki of 3 µM.
